Here are results for eight compounds from patent EP4722203A1, “3,4-DIHYDROPHTHALAZIN-1(2H)-ONE DERIVATIVE, AND PREPARATION METHOD THEREFOR AND USE THEREOF” (Academy of Military Medical Sciences, priority 2023, dated 2024).

Series [1] has as its system human multiple myeloma NCI-H929 xenograft tumors. Description: In vivo activity of combination therapy with bortezomib or tazemetostat against NCI-H929 transplanted tumor. Further details: species or system NOD/SCID mice. The following applies: I-8 3 mg/kg QD; for Average volume (mm^3) (Day 10) / Tumor inhibition rate TGI (%) / Initial volume (mm^3): Bort 1 mg/kg BIW, Taze 100 mg/kg QD, combinations given as + Bort 3 mg/kg BIW / + Taze 3 mg/kg QD; for Initial volume (mm^3): baseline. On the procedure: In this example, the human multiple myeloma NCI-H929 cell line was selected as the cell model to determine the inhibitory effects of compounds, bortezomib (Bort), and tazemetostat (Taze), as single drugs and in combination, on the growth of NOD/SCID mouse transplanted tumors of NCI-H929 tumor cells. The evaluation methods and results are described below.
(§1) Human multiple myeloma NCI-H929 cells were routinely cultured in RPMI1640 containing 10% fetal bovine serum at 37°C in a 5% CO2 incubator. After three passages in vitro, when the cells reached over 80% confluence and the required confluence rate, the cells were digested and harvested. After washing with PBS, the cells were counted and the cell concentration was adjusted to approximately 5 × 10^7 cells/mL. The cells were then placed in 4 mL centrifuge tubes on ice for later use.
(§2) Female NOD/SCID mice aged 4-5 weeks were selected and subcutaneously inoculated with NCI-H929 cells ectopically. The mice were held in a lateral position, the forelimb axilla was disinfected with 75% alcohol, and 100 µL of the cell suspension was injected subcutaneously into the axilla using a 1 mL syringe ([…]/100 µL).
After the tumors grew to 90-150 mm^3, the animals were randomly divided into groups, 8 mice in each group, and administered according to different administration methods as follows: • Model control group: Administered with the same volume of Vehicle (DMSO: 0.5% sodium carboxymethyl cellulose: distilled water = 1:1:8) daily by gavage; • Test group 1: administered with I-8 solution at 3 mg/kg (mouse body weight) daily by gavage; • Test group 2: administered with bortezomib (Bort) solution at 1 mg/kg (mouse body weight) twice weekly by gavage; • Test group 3: administered with tazemetostat solution at 100 mg/kg (mouse body weight) daily by gavage; • Test group 4: administered with I-8 at 3 mg/kg (mouse body weight) daily by gavage and bortezomib (Bort) solution at 1 mg/kg (mouse body weight) twice weekly by gavage; • Test group 5: administered with I-8 at 3 mg/kg (mouse body weight) daily by gavage and tazemetostat (Taze) solution at 100 mg/kg (mouse body weight) daily by gavage;
(§3) The route of administration was oral gavage, and the administration frequency was once daily, for 10 consecutive days. The first day of administration was defined as Day 1 of the experiment. Tumor volume changes in mice were measured and recorded every two days. Tumor volume was measured using a vernier caliper, in which the major axis (a) and minor axis (b) of the tumor were measured, and the tumor volume was calculated as tumor volume V (mm^3) = a x b^2/2. After the experiment, the mice were dissected and the tumor weight was measured. The data were entered and statistically analyzed using GraphPad Prism 6 software. The data are expressed as mean ± SEM (Standard Error of Mean), and one-way ANOVA was used. P ≤ 0.05 was considered statistically significant.

Series [2] has the same test system. The series can be described thus: In vivo antitumor activity against NCI-H929 transplanted tumors. Details: species or system NOD/SCID mice. The following applies: QD; for Tumor inhibition rate TGI (%) / Average volume (mm^3) (Day 10) / Initial volume (mm^3): oral gavage; for Tumor inhibition rate TGI (%): 10 consecutive days; for Initial volume (mm^3): baseline. Here is the method:
In this example, the human multiple myeloma NCI-H929 cell line was used as the cell model. The inhibitory effects of compounds on the growth of NOD/SCID mouse transplanted tumors of NCI-H929 tumor cells were determined. The evaluation methods and results are described below.
as §1, §2
After the tumors grew to 90-150 mm^3, the animals were randomly divided into groups, 8 mice in each group, and administered according to different administration methods as follows: • Model control group: Administered with the same volume of Vehicle (DMSO: 0.5% sodium carboxymethyl cellulose: distilled water = 1:1:8) daily by gavage; • Control drug group 1: administered with pomalidomide solution at 10 mg/kg (mouse body weight) daily by gavage; • Control drug group 2: administered with CC-220 solution at 3 mg/kg (mouse body weight) daily by gavage; • Control drug group 3: administered with CC-220 solution at 10 mg/kg (mouse body weight) daily by gavage; • Experimental compound group 4: administered with compound I-4 solution at 3 mg/kg (mouse body weight) daily by gavage; • Experimental compound group 5: administered with compound I-4 solution at 10 mg/kg (mouse body weight) daily by gavage; • Experimental compound group 6: administered with compound I-8 solution at 3 mg/kg (mouse body weight) daily by gavage; • Experimental compound group 7: administered with compound I-8 solution at 10 mg/kg (mouse body weight) daily by gavage;
as §3

Series [3] shares this test system. The series can be described thus: In vivo activity in combination with dexamethasone against NCI-H929 transplanted tumor. Details: species or system NOD/SCID mice. The settings on record: each drug 3 mg/kg, QD, oral gavage, alone or combined. On the procedure: In this example, human multiple myeloma NCI-H929 cell line was selected as the cell model to determine the inhibitory effects of compound and dexamethasone alone, as well as combination thereof on the growth of NOD/SCID mouse transplanted tumors of NCI-H929 tumor cells. The evaluation methods and results are described below.
as §1, §2
After the tumors grew to 90-150 mm^3, the animals were randomly divided into groups, 8 mice in each group, and administered according to different administration methods as follows: • Model control group: Administered with the same volume of Vehicle (DMSO: 0.5% sodium carboxymethyl cellulose: distilled water = 1:1:8) daily by gavage; • Test group 1: administered with dexamethasone (Dex) solution at 3 mg/kg (mouse body weight) daily by gavage; • Test group 2: administered with I-4 solution at 3 mg/kg (mouse body weight) daily by gavage; • Test group 3: administered with I-8 solution at 3 mg/kg (mouse body weight) daily by gavage; • Test group 4: administered with dexamethasone at 3 mg/kg (mouse body weight) and 1-4 solution at 3 mg/kg (mouse body weight) daily by gavage; • Test group 5: administered with dexamethasone at 3 mg/kg (mouse body weight) and I-8 solution at 3 mg/kg (mouse body weight) daily by gavage;
as §3

The test system of series [4] is WSU-DLCL-2 cells. The series can be described thus: Antiproliferative activity, CCK-8 assay. The class given is cell-based. The following applies: Homo sapiens, WSUDLCL2; 144 hours incubation, CCK-8, absorbance at 450 nm. Here is the method:
(§4) The cell models used in this example were human hematologic tumor cells, including NCI-H929, RPMI-8226, MV-4-11, U937 and WSU-DLCL-2. Some of the compounds of the present invention were selected to determine their inhibitory activity against the proliferation of NCI-H929, RPMI-8226, MV-4-11, U937, and WSU-DLCL-2 cells.
(§5) • ① The selected compounds were dissolved in DMSO to prepare 10 mM stock solutions. Compounds used within three months should be stored at room temperature in a desiccator; others could be stored at -20°C for long-term storage. • ② The above stock solutions and the positive reference compound pomalidomide were diluted with DMSO. Their initial concentrations were 10 µM. In the experiments of NCI-H929 and RPMI-8226 cells, 3-fold serial dilution with 11 concentration points was performed, with the lowest concentration of 0.00047 µM. The resulting solutions were shaken on a shaker for 5 minutes.
(§6) • ① The NCI-H929, RPMI-8226, MV-4-11, U937, and WSU-DLCL-2 cells in logarithmic growth phase were inoculated in a 96-well plate, 20,000 to 30,000 cells per well, and the plate was pre-cultured for 24 hours in an incubator (at 37°C and 5% CO2). • ② The culture medium in the plate was replaced, and the compounds and the positive control with corresponding concentrations were added to the plated at a volume of 50 µl. • ③ The plate was incubated for 144 hours in an incubator, then 15 µl of CCK-8 solution was added to each well, and incubated in the incubator for another 1-4 hours. • ④ The absorbance at 450 nm was measured using a microplate reader.
(§7) • ① Calculating % Inhibition: [formula] • ② Calculating IC50 value of compound and plotting dose-response curve: The IC50 value was calculated by fitting the % Inhibition and the logarithm of compound concentration to a nonlinear regression (dose response-variable slope) by using GraphPad 6.0. • Y = Bottom + (Top - Bottom) / (1 + 10^((LogIC50 - X) * HillSlope)) • X: log of inhibitor concentration; Y: % Inhibition.
(§8) After calculating % Inhibition, a dose-response curve was plotted with the logarithm of the test compound concentration as the x-axis and the average cell viability as the y-axis, and the IC50 value was obtained by fitting.
In general terms: Tetrazolium dyes change colour on reduction, which living cells bring about.

Series [5] deals with MV-4-11 cells. The series can be described thus: Antiproliferative activity, CCK-8 assay. It counts as cell-based. The settings on record: Homo sapiens, MV4-11; 144 hours incubation, CCK-8, absorbance at 450 nm. On the procedure: as §4, §5, §6, §7, §8
Series [6] relates to U937 cells. Description: Antiproliferative activity, CCK-8 assay. The class given is cell-based. The settings on record: Homo sapiens, U-937; 144 hours incubation, CCK-8, absorbance at 450 nm. Here is the method: as §4, §5, §6, §7, §8
The test system of series [7] is NCI-H929 cells. Description: Antiproliferative activity, CCK-8 assay. The class given is cell-based. The following applies: Homo sapiens, 144 hours incubation, CCK-8, absorbance at 450 nm, read-out: IC50 (µM) H-929. Here is the method: as §4, §5, §6, §7, §8
For series [8], the system named is RPMI-8226 cells. The series can be described thus: Antiproliferative activity, CCK-8 assay. It counts as cell-based. The settings on record: Homo sapiens, 144 hours incubation, CCK-8, absorbance at 450 nm. Here is the method: as §4, §5, §6, §7, §8

In the case of `CC(C)C[C@H](NC(=O)[C@H](Cc1ccccc1)NC(=O)c1cnccn1)B(O)O` [Bort, bortezomib], in series [1], the “Average volume (mm^3) (Day 10)” value amounted to 1249.7 mm^3, the “Tumor inhibition rate TGI (%)” value is 30.78% and the “Initial volume (mm^3)” value was determined as 100.6 mm^3. For the same compound, in series [1] (bortezomib 1 mg/kg BIW, tazemetostat 100 mg/kg QD, alone or combined), the “growth of NCI-H929 transplanted tumors (in words)” value was “weaker tumor-inhibiting abilities”.

Regarding `O=C1CC[C@H](N2Cc3c(OCc4ccc(CN5CCOCC5)cc4)cccc3C2=O)C(=O)N1` [CC-220, reference compound], in series [2] (3 mg/kg), the “Tumor inhibition rate TGI (%)” value stood at 77.98%, the “Average volume (mm^3) (Day 10)” value is 643.1 mm^3 and the “Initial volume (mm^3)” value is 214.6 mm^3. Further, in series [2] (10 mg/kg), the “Tumor inhibition rate TGI (%)” value turned out to be 100.09%, the “Average volume (mm^3) (Day 10)” value came to 205.5 mm^3 and the “Initial volume (mm^3)” value is 207.2 mm^3. Further, the body weight result in series [2] (10 mg/kg, during the experiment, Figure 2B) was “decreasing trend in body weight”.

Consider `C[C@@H]1C[C@H]2[C@@H]3CCC4=CC(=O)C=C[C@]4(C)[C@@]3(F)[C@@H](O)C[C@]2(C)[C@@]1(O)C(=O)CO` [Dex, dexamethasone, reference compound], for which, in series [3] (10 consecutive days), the “Tumor inhibition rate TGI (%)” value worked out at 45.48%. Besides, in series [3] (Day 10), the “Average volume (mm^3) (Day 10)” value came out at 1048.6 mm^3. Further, the “Initial volume (mm^3)” value in series [3] (baseline) amounted to 185.7 mm^3.

A word on the IC50: it is the point on the concentration scale where inhibition reaches its midpoint. Turning to `CN1Cc2c(NCc3ccc(CN4CCOCC4)cc3)cccc2C(=O)N1C1CCC(=O)NC1=O` (stereo not shown) [I-1, 3-(3-methyl-5-((4-(morpholinomethyl)benzyl)amino)-1-oxo-3,4-dihydrophthalazin-2(1H)-yl)piperidin-2,6-dione], the IC50 is 0.358 µM in series [4], 3.43 µM in series [5] and 1.32 µM in series [6].

Take `CNc1cccc2c1CN(C)N(C1CCC(=O)NC1=O)C2=O` (stereo not shown) [I-2, 3-(3-methyl-5-(methylamino)-1-oxo-3,4-dihydrophthalazin-2(1H)-yl)piperidin-2,6-dione]: the IC50 is 0.311 µM in series [7]; 1.06 µM in series [4]; over 10 µM in series [5]; 1.33 µM in series [6]; 8.31 µM in series [8].

Take `CN1Cc2c(NCc3ccc(CN4CCN(c5ccccc5)CC4)cc3)cccc2C(=O)N1C1CCC(=O)NC1=O` (stereo not shown) [I-3, 3-(3-methyl-1-oxo-5-((4-((4-phenylpiperazin-1-yl)methyl)benzyl)amino)-3,4-dihydrophthalazin-2(1H)-yl)piperidin-2,6-dione]: the IC50 in series [7] came to 1.3 µM; in series [4], 0.279 µM; in series [5], 1.39 µM; in series [6], 1.11 µM.

Turning to `CN1Cc2c(NCc3ccc(CN4CCN(C(=O)OC(C)(C)C)CC4)cc3)cccc2C(=O)N1C1CCC(=O)NC1=O` (stereo not shown) [I-5, tert-butyl 4-(4-(((2-(2,6-dioxopiperidin-3-yl)-3-methyl-1-oxo-1,2,3,4-tetrahydrophthalazin-5-yl)amino)methyl)benzyl)piperazin-1-carboxylate], the IC50 in series [7] stood at 0.243 µM; in series [4] it was 0.108 µM; in series [5], 0.174 µM; in series [6], 0.666 µM; in series [8], 0.641 µM.

`CCN(c1cc(-c2ccc(CN3CCOCC3)cc2)cc(C(=O)NCc2c(C)cc(C)[nH]c2=O)c1C)C1CCOCC1` [Taze, tazemetostat]: in series [1], the “Average volume (mm^3) (Day 10)” value worked out at 1558.0 mm^3, the “Tumor inhibition rate TGI (%)” value turned out to be 12.83% and the “Initial volume (mm^3)” value came to 110.8 mm^3.
